Laboratory results taken from ChEMBL document CHEMBL2331375, “Design, Synthesis, and Pharmacological Evaluation of Fluorescent and Biotinylated Antagonists of ρ1 GABAC Receptors” (ACS Med Chem Lett, 2013).
One block for each molecule: values may come before it. Activity calls are given as the source filed them. No cut-off for these calls is given here.

What was measured:
[1] = target: T1, Gamma-aminobutyric acid receptor subunit rho-1 (Homo sapiens, UniProt P24046); assay: Antagonist activity at human GABAC rho1 receptor expressed in Xenopus laevis oocytes assessed as inhibition of GABA-induced current preincubated for 5 mins by two electrode voltage clamp assay; format: cell-based, Oocyte
[2] = target: GABA-A receptor; alpha-1/beta-2/gamma-2 (Homo sapiens) (UniProt P14867+P47870+P18507); assay: Antagonist activity at human GABAA alpha1beta2gamma2L receptor expressed in Xenopus laevis oocytes assessed as inhibition of GABA-induced current at 300 uM by two electrode voltage clamp assay relative to control; format: cell-based; conditions: Oocyte
[3] = species on record: Homo sapiens; assay: Selectivity for human GABAC rho1 receptor over human GABAA alpha1beta2gamma2L receptor
[4] = target: T1, Gamma-aminobutyric acid receptor subunit rho-1; assay: Antagonist activity at human GABAC rho1 receptor expressed in Xenopus laevis oocytes assessed as inhibition of GABA-induced current by two electrode voltage clamp assay; format: cell-based, Oocyte
[5] = target: T1, Gamma-aminobutyric acid receptor subunit rho-1; assay: Antagonist activity at human GABAC rho1 receptor expressed in Xenopus laevis oocytes assessed as inhibition of GABA-induced current at 600 uM by two electrode voltage clamp assay relative to control; format: cell-based; conditions: Oocyte
[6] = target: T1, Gamma-aminobutyric acid receptor subunit rho-1; assay: Agonist activity at GABAC rho1 receptor (unknown origin)
[7] = target: GABA-A receptor; agonist GABA site; assay: Agonist activity at GABAA receptor (unknown origin); format: protein-complex assay, Homo sapiens
[8] = target: T1, Gamma-aminobutyric acid receptor subunit rho-1; assay: Partial agonist activity at GABAC rho1 receptor (unknown origin)
[9] = Agonist activity at GABAC receptor (unknown origin) expressed in Xenopus laevis oocytes; format: cell-based; conditions: Homo sapiens, Oocyte
[10] = target: T1, Gamma-aminobutyric acid receptor subunit rho-1; assay: Antagonist activity at human GABAC rho1 receptor expressed in Xenopus laevis oocytes assessed as inhibition of GABA-induced current at 300 uM by two electrode voltage clamp assay relative to control; format: cell-based; conditions: Oocyte

T1 sequence (P24046 whole entry): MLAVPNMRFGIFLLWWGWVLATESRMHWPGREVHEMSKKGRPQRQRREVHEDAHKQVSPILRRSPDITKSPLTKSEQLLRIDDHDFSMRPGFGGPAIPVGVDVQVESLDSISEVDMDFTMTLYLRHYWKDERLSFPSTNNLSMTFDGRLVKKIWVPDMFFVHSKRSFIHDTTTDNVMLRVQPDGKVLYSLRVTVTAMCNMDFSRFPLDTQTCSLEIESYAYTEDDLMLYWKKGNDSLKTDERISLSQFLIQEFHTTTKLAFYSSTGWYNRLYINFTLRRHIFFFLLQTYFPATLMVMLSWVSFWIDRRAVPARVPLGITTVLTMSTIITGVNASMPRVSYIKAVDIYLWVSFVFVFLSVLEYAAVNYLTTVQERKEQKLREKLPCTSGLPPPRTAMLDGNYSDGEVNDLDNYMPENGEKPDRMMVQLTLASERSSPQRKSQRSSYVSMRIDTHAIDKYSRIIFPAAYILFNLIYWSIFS

SMILES: CCCCP(=O)(O)C1=CC[C@H](NC(=O)CCCCCNC(=O)CCC2=C3C(C)=CC(C)=[N+]3[B-](F)(F)n3c(C)cc(C)c32)C1
IC50 [1]: 58.6 µM | inhibition [2]: inactive | Selectivity ratio [3]: > 100 | IC50 [4]: 103 µM

SMILES: NC[C@@H]1C[C@@H]1C(=O)O
EC50 [6]: 39.7 µM

SMILES: CCCCP(=O)(O)C1=CC[C@H](NC(=O)CNC(=O)c2ccccc2NC)C1
inhibition [5]: 8%

SMILES: NCc1cc(=O)[nH]o1 [MUSCIMOL]
EC50 [7]: 27 µM | EC50 [8]: 2.3 µM | EC50 [9]: 2 µM

SMILES: CCCCP(=O)(O)C1=CC[C@H](NC(=O)CCCCCNc2ccc([N+](=O)[O-])c3nonc23)C1
IC50 [1]: 193 µM | inhibition [2]: inactive | IC50 [4]: 281 µM

SMILES: CCCCP(=O)(O)C1=CC[C@H](N)C1
inhibition [2]: inactive | inhibition [10]: 97% | IC50 [4]: 9.76 µM

SMILES: CCCCP(=O)(O)C1=CC[C@H](NC(=O)CCCCNC(=O)c2ccccc2NC)C1
inhibition [5]: 31%

SMILES: Cc1nc[nH]c1CC(=O)O
EC50 [6]: 22 µM

SMILES: CCCCP(=O)(O)C1=CC[C@H](NC(=O)CCCCCNC(=O)CCCC[C@@H]2SC[C@@H]3NC(=O)N[C@@H]32)C1
IC50 [1]: 76.5 µM | inhibition [2]: 9% | IC50 [4]: 148 µM

SMILES: CCCCP(=O)(O)C1=CC[C@H](NC(=O)CCCNC(=O)c2ccccc2NC)C1
inhibition [5]: 23%

SMILES: CCCCP(=O)(O)C1=CC[C@@H](N)C1
inhibition [2]: inactive | inhibition [10]: 92%

More lines, now with the values ahead:

inhibition [5]: 55%
SMILES: CCCCP(=O)(O)C1=CC[C@H](NC(=O)CCCCCCNC(=O)c2ccccc2NC)C1

inhibition [2]: inactive | inhibition [5]: 56%
SMILES: CCCCP(=O)(O)C1=CC[C@@H](NC(=O)CCCCCNC(=O)c2ccccc2NC)C1

EC50 [9]: 20 µM
SMILES: O=C(CCCC[C@@H]1SC[C@@H]2NC(=O)N[C@@H]21)NCCCCCC(=O)NCc1cc(O)no1

inhibition [5]: 24%
SMILES: CCCCP(=O)(O)C1=CC[C@H](NC(=O)CCCCCCCNC(=O)c2ccccc2NC)C1

inhibition [5]: 8%
SMILES: CCCCP(=O)(O)C1=CC[C@H](NC(=O)CCCCCCCCCCNC(=O)c2ccccc2NC)C1

inhibition [2]: inactive | inhibition [5]: 62%
SMILES: CCCCP(=O)(O)C1=CC[C@H](NC(=O)CCCCCNC(=O)c2ccccc2NC)C1

inhibition [10]: inactive
SMILES: CCCCP(=O)(O)C1=CC[C@H](NC(=O)CCCC[C@@H]2SC[C@@H]3NC(=O)N[C@@H]32)C1
